The compound `Cc1ccc(NC(=O)c2cccc(C(F)(F)F)c2)cc1-c1ccc2ccncc2c1` [Example 1, N-(3-Isoquinolin-7-yl-4-methyl-phenyl)-3-trifluoromethyl-benzamide] showed a melting point of 148 to 152 °C.
For `Cc1ccc(C(=O)Nc2cccc(C(F)(F)F)c2)cc1-c1ccc2ccncc2c1` [Example 3, 3-Isoquinolin-7-yl-4-methyl-N-(3-trifluoromethyl-phenyl)-benzamide], the melting point was in the range of 157 to 159 °C.
The value for `Cc1ccc(NC(=O)c2cccc(C(F)(F)F)c2)cc1-c1ccc2ncsc2c1` [Example 5, N-(3-Benzothiazol-6-yl-4-methyl-phenyl)-3-trifluoromethyl-benzamide] was 94 to 96 °C.
The value for `Cc1ccc(C(=O)Nc2cccc(C(F)(F)F)c2)cc1-c1ccc2ncsc2c1` [Example 6, 3-Benzothiazol-6-yl-4-methyl-N-(3-trifluoromethyl-phenyl)-benzamide] was 102 to 104 °C.
`Cc1ccc(NC(=O)c2cccc(C(F)(F)F)c2)cc1-c1ccc2cnncc2c1` [Example 7, N-(4-Methyl-3-phthalazin-6-yl-phenyl)-3-trifluoromethyl-benzamide] had a melting point of 205 to 206 °C.
As to `Cc1ccc(C(=O)Nc2cccc(C(F)(F)F)c2)cc1-c1ccc2cnncc2c1` [Example 8, 4-Methyl-3-phthalazin-6-yl-N-(3-trifluoromethyl-phenyl)-benzamide], the melting point lay within 270 to 272 °C.
The value for `Cc1ccc(NC(=O)c2cccc(C(F)(F)F)c2)cc1-c1ccc2scnc2c1` [Example 9, N-(3-Benzothiazol-5-yl-4-methyl-phenyl)-3-trifluoromethyl-benzamide] was 90 to 93 °C; that for `Cc1ccc(C(=O)Nc2cccc(C(F)(F)F)c2)cc1-c1ccc2scnc2c1` [Example 10, 3-Benzothiazol-5-yl-4-methyl-N-(3-trifluoromethylphenyl)benzamide] was 200 to 202 °C; that for `Cc1ccc(NC(=O)c2ccc(CN3CCN(C)CC3)c(C(F)(F)F)c2)cc1-c1ccc2cnncc2c1` [Example 15, N-(4-Methyl-3-phthalazin-6-yl-phenyl)-4-(4-methyl-piperazin-1-ylmethyl)-3-trifluoromethyl-benzamide] was 204 to 208 °C.
The value for `Cc1ccc(NC(=O)c2ccc(CN3CCCCC3)c(C(F)(F)F)c2)cc1-c1ccc2cnncc2c1` [Example 17, N-(4-Methyl-3-phthalazin-6-yl-phenyl)-4-piperidin-1-ylmethyl-3-trifluoromethyl-benzamide] was 175 to 177 °C.
In the case of `Cc1ccc(NC(=O)c2ccc(CN(C)C)c(C(F)(F)F)c2)cc1-c1ccc2cnncc2c1` [Example 19, 4-Dimethylaminomethyl-N-(4-methyl-3-phthalazin-6-yl-phenyl)-3-trifluoromethyl-benzamide] it was 240 to 241 °C; in that of `Cc1ccc(NC(=O)c2ccc(CN3CCOCC3)c(C(F)(F)F)c2)cc1-c1ccc2cnncc2c1` [Example 20, N-(4-Methyl-3-phthalazin-6-yl-phenyl)-4-morpholin-4-ylmethyl-3-trifluoromethyl-benzamide], 236 to 238 °C; in that of `Cc1ccc(C(=O)Nc2ccc(CN3CCCCC3)c(C(F)(F)F)c2)cc1-c1ccc2cnncc2c1` [Example 22, 4-Methyl-3-phthalazin-6-yl-N-(4-piperidin-1-ylmethyl-3-trifluoromethyl-phenyl)-benzamide], 247 to 249 °C.
`Cc1ccc(C(=O)Nc2ccc(CN3CCOCC3)c(C(F)(F)F)c2)cc1-c1ccc2cnncc2c1` [Example 23, 4-Methyl-N-(4-morpholin-4-ylmethyl-3-trifluoromethyl-phenyl)-3-phthalazin-6-yl-benzamide] yielded a melting point of 284 to 287 °C.
The value for `Cc1ccc(C(=O)Nc2ccc(CN(C)C)c(C(F)(F)F)c2)cc1-c1ccc2cnncc2c1` [Example 24, N-(4-Dimethylaminomethyl-3-trifluoromethyl-Phenyl)-4-methyl-3-phthalazin-6-yl-benzamide] was 251 to 254 °C; that for `Cc1ccc(C(=O)Nc2ccc(CN3CCCC3)c(C(F)(F)F)c2)cc1-c1ccc2cnncc2c1` [Example 25, 4-Methyl-3-phthalazin-6-yl-N-(4-pyrrolidin-1-ylmethyl-3-trifluoromethyl-phenyl)-benzamide] was 246 to 250 °C.

These data come from patent publication US20060035897A1, “Trifluoromethyl substituted benzamides as kinase inhibitors” (priority 2004, published 2006).
